According to patent US8288541B2, “Piperazine amide derivatives” (Hoffmann-La Roche Inc., priority 2007, dated 2012):

Key:
LXR alpha = molecular target: T1, LXR alpha (Homo sapiens, UniProt Q13133); test: Radioligand binding assay (SPA), LXR alpha LBD; conditions: LXRα-LBD, read-out: LXRalpha Binding IC50
T1 construct: human LXR alpha (aa 164 to 447); unnamed tag ('tagged versions'); made in house; host or cells: E. coli BL21 (pLysS)
T1 sequence (Q13133 164-447): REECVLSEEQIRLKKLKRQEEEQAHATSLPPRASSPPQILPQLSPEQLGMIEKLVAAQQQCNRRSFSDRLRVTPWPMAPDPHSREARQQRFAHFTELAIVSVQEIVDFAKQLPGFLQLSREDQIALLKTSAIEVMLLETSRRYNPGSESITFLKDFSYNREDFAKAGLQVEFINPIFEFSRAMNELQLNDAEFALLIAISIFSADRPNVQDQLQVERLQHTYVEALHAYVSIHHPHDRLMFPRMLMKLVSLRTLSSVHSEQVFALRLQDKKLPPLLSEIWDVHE
Procedure: (§1) The following tests were carried out in order to determine the activity of the compounds of the present invention. Background information on the performed assays can be found in: Nichols J S et al. “Development of a scintillation proximity assay for peroxisome proliferator-activated receptor gamma ligand binding domain”, Anal Biochem. 1998, 257: 112-119.
(§2) Mammalian expression vectors were constructed to express full-length human LXR alpha and LXR beta. Bacterial expression vectors were constructed to produce tagged versions of the ligand binding domains (LBD) of human LXR alpha (aa 164 to 447) and human LXR beta (aa 155 to 460). To accomplish this, the portions of the sequences encoding the LBDs were amplified from the full-length clones by PCR and then subcloned into the plasmid vectors. Final clones were verified by DNA sequence analysis (Willy et al., Genes Dev. 1995, 9:1033-45; Song et al., Proc Natl Acad Sci USA. 1994, 91:10809-13).
(§3) Induction, expression, and purification of LBD proteins were performed in E. coli strain BL21 (pLysS) cells by standard methods (Ref: Current Protocols in Molecular Biology, Wiley Press, edited by Ausubel et al).
(§4) Radioligand Binding Assay
(§5) LXR alpha and LXR beta receptor binding were assayed in buffer consisting of 50 mM HEPES, pH 7.4, 10 mM NaCl, 5 mM MgCl2. For each 96-well reaction, 500 ng of LXRα-LBD or 700 ng of LXR beta-LBD proteins were bound to 80 μg or 40 μg SPA beads respectively, in a final volume of 50 μl by shaking. The resulting slurry was incubated for 1 h at RT and centrifuged for 2 min at 1300×g. The supernatant containing unbound protein was removed, and the semi-dry pellet containing the receptor-coated beads was re-suspended in 50 μl of buffer. […] All binding assays were performed in 96-well plates and the amount of bound ligand was measured on a Packard TopCount using OptiPlates (Packard). Dose response curves were measured within a range of concentration from 10^−10 M to 10^−4 M.

LXR beta = molecular target: T2, LXR beta (Homo sapiens, UniProt P55055); test: Radioligand binding assay (SPA), LXR beta LBD; conditions: read-out: LXRbeta Binding IC50
T2 construct: human LXR beta (aa 155 to 460); unnamed tag ('tagged versions'); made in house; host or cells: E. coli BL21 (pLysS)
T2 sequence (P55055 155-460): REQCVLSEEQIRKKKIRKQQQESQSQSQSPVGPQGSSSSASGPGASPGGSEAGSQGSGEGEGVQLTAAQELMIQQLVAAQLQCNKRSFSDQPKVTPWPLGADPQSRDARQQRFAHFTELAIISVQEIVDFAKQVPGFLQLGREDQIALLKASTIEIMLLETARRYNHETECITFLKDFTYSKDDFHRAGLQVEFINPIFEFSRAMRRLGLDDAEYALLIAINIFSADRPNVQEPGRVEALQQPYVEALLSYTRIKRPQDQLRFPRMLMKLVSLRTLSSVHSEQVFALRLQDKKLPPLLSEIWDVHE
Procedure: as §1, §2, §3, §4, §5

| Compound | melting point [°C] | IC50 (LXR alpha) [µM] | IC50 (LXR beta) [µM] |
| --- | --- | --- | --- |
| COc1cccc(S(=O)(=O)N2CC[C@H](c3ccccc3)[C@H](C(=O)N3CCN(c4cc(C)ccc4C)CC3)C2)c1 (relative stereo) [Example 42, Cis-[4-(2,5-Dimethyl-phenyl)-piperazin-1-yl]-[-1-(3-methoxy-benzenesulfonyl)-4-phenyl-piperidin-3-yl]-methanone] | 192 | – | – |
| Cc1ccc(Cl)cc1N1CCN(C(=O)[C@@H]2CN(S(C)(=O)=O)CC[C@@H]2c2ccc(F)cc2F)CC1 (single isomer, unassigned) [Example 87, [4-(5-Chloro-2-methyl-phenyl)-piperazin-1-yl]-[(3S,4S) or (3R,4R)-4-(2,4-difluoro-phenyl)-1-methanesulfonyl-piperidin-3-yl]-methanone] | – | 15.6 | 2.8 |
| Cc1cc(F)ccc1N1CCN(S(=O)(=O)c2cccc(Cl)c2)CC1C(=O)N1CCN(c2cc(Cl)ccc2Cl)CC1 (stereo not shown) [Example 4, [4-(3-Chloro-benzenesulfonyl)-1-(4-fluoro-2-methyl-phenyl)-piperazin-2-yl]-[4-(2,5-dichloro-phenyl)-piperazin-1-yl]-methanone] | – | 18 | 0.72 |
| COc1cccc(S(=O)(=O)N2CCN(c3ccccc3)C(C(=O)N3CCN(c4cc(C)ccc4C)CC3)C2)c1 (stereo not shown) [Example 8, [4-(2,5-Dimethyl-phenyl)-piperazin-1-yl]-[4-(3-methoxy-benzenesulfonyl)-1-phenyl-piperazin-2-yl]-methanone] | – | 4.1 | 0.77 |
